One test concerns Streptococcus pyogenes. The test is described as follows: Minimal inhibitory concentration, nutrient broth tube dilution, Streptococcus pyogenes. The test is classed as cell-based. Here is the method:
(§1) These tests were run by preparing tubes of nutrient broth with gradually increasing concentrations of the pure antibiotic and then seeding the broths with the particular organism specified. […] The tests were conducted under standardized conditions as described in Proc. Soc. Exp. Biol. & Med. 122, ll07 (1966). Tables II and III illustrate the in vivo activity of these new antibiotics in experimentally infected mice.

The next test deals with Streptococci. As to the kind of experiment: In vivo activity in experimentally infected mice, Streptococci (PD50). As to conditions: Mus musculus, oral, read-out: PD50 (dose that provides 50% protection). Here is the method:
as §1
(§2) *Dose that provides 50% protection?

A further test concerns M. tuber. H37Rv. As to the kind of experiment: Minimal inhibitory concentration, nutrient broth tube dilution, M. tuberculosis. The test is classed as cell-based. The note with it: Mycobacterium tuberculosis. Here is the method:
as §1

In test [1] the test system is S. aureus (multi-resistant). The test is described as follows: Minimal inhibitory concentration, nutrient broth tube dilution, S. aureus (multi-resistant). The test is classed as cell-based. The note with it: Staphylococcus aureus. Here is the method:
as §1

The test system of the next test is Diplococci. The test is described as follows: In vivo activity in experimentally infected mice, Diplococci (PD50). The note with it: Mus musculus, oral, read-out: PD50 (dose that provides 50% protection). Here is the method: as §1, §2
In another test the test system is M. tuberculosis. The test is described as follows: M. tuberculosis infection in mice, survival. The test is classed as in vivo. The note with it: evaluated at 53 days post challenge; for Percent Survival: control 20; for Average Survival Time: control 37.7. Here is the method: as §1
M. tuberculosis Infection in Mice
*Evaluated at 53 days post challenge

In another test the test system is Staphylococci. As to the kind of experiment: In vivo activity in experimentally infected mice, Staphylococci (PD50). As to conditions: Mus musculus, read-out: PD50 (dose that provides 50% protection). Here is the method:
as §1, §2

The subject of a further test is Staphylococcus aureus. As to the kind of experiment: Minimal inhibitory concentration, nutrient broth tube dilution, Staphylococcus aureus. The test is classed as cell-based. Here is the method:
as §1

A short description of test [2]: Antibiotic properties of hexahydro derivatives compared with parent compounds. As to conditions: compared with the parent compound.

Values after ≈ are worked out from the molar mass of the structure shown. Where two headings read alike, the source gives them in different places.

In general, MIC refers to the lowest concentration found to suppress growth. Read a low MIC as a more susceptible organism. As for `COC1C=COC2(C)Oc3c(C)c(O)c4c(O)c(c(SC)c(O)c4c3C2=O)NC(=O)C(C)=CC=CC(C)C(O)C(C)C(O)C(C)C(OC(C)=O)C1C` (stereo not shown) [3-methylthiorifamycin SV], the MIC is 1.9 ng/mL (≈ 2.55 nM) in the test on Streptococcus pyogenes, 15 ng/mL (≈ 20.2 nM) in the test on M. tuber. H37Rv, 1.9 to 3.9 ng/mL (≈ 2.55 to 5.24 nM) in test [1] and 1.9 ng/mL (≈ 2.55 nM) in the test with Staphylococcus aureus. Besides, the ED50 with Streptococci was 0.22 mg/kg; in the test with Diplococci it was 8 mg/kg; with Staphylococci (oral), 1.1 mg/kg; in the test on Staphylococci (sc, subcutaneous), 0.65 mg/kg. The “Percent Survival” value is reported as 70% in the test with M. tuberculosis (daily dose 0.5 mg) and 100% with M. tuberculosis (daily dose 5.0 mg). For the same compound, the “Average Survival Time” value came to 44.3 days in the test on M. tuberculosis (daily dose 0.5 mg) and 53.0 days in the test with M. tuberculosis (daily dose 5.0 mg).

Regarding `COC1C=COC2(C)Oc3c(C)c(O)c4c(c3C2=O)C(=O)C(SC)=C(NC(=O)C(C)=CC=CC(C)C(O)C(C)C(O)C(C)C(OC(C)=O)C1C)C4=O` (stereo not shown) [3-methylthiorifamycin S], the MIC in the test on Streptococcus pyogenes is 0.9 ng/mL (≈ 1.21 nM); in the test on M. tuber. H37Rv it was 6 ng/mL (≈ 8.09 nM); in test [1] it was 1.2 to 3.9 ng/mL (≈ 1.62 to 5.26 nM); in the test with Staphylococcus aureus it was 0.4 ng/mL (≈ 0.539 nM). Also, the ED50 with Streptococci is 0.6 mg/kg; with Diplococci, over 12.5 mg/kg; in the test with Staphylococci (oral), 1.4 mg/kg; in the test on Staphylococci (sc, subcutaneous) it was 0.17 mg/kg.

For “hexahydro derivative of 3-methylthiorifamycin SV”, the “antibiotic properties / antibiotic activity” value in [2] is given as “comparable to those of the parent compounds”.

For hexahydro-3-methylthiorifamycin S, the “antibiotic properties / antibiotic activity” value in test [2] is recorded as “comparable to those of the parent compounds”.

These data come from patent publication US4062944A, “Mixture of antibiotics produced by new species of micromonospora” (Pfizer Inc., priority 1976, dated 1977).
